Source: patent US8148391B2 (Cephalon, Inc., priority 2006, dated 2012)

Assays:
[1] = target: T1, c-Met (cytoplasmic domain) (Homo sapiens, UniProt P08581); assay: c-Met Kinase Assay (same methods as for ALK, with modifications); type: biochemical; settings: 1 μM ATP (Km level); read-out: cMet Activity (c-Met Kinase Inhibition, IC50)
T1 construct: 10 ng/mL c-Met (cytoplasmic domain, Invitrogen Corporation #PV3143); purchased Invitrogen Corporation PV3143
How it was run: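 IC50 values were fitted by variable-slope sigmoidal regression of percent inhibition against log compound concentration. Phosphorylation was read with Eu-N1 PT66 antibody after a 15 min, 37 °C reaction. The reaction was initiated with 10 ng/mL c-Met cytoplasmic domain on wells coated with 10 μg/mL PLC-γ in TBS.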

[2] = target: T2, baculovirus-expressed ALK (Homo sapiens, UniProt Q9UM73); assay: ALK Kinase Assay (ELISA-type, time-resolved fluorescence); type: biochemical; settings: 1 μM ATP (Km level); read-out: ALK Activity (ALK Kinase Inhibition, IC50)
T2 construct: host or cells: baculovirus expression system
T2 sequence (Q9UM73 19-1620): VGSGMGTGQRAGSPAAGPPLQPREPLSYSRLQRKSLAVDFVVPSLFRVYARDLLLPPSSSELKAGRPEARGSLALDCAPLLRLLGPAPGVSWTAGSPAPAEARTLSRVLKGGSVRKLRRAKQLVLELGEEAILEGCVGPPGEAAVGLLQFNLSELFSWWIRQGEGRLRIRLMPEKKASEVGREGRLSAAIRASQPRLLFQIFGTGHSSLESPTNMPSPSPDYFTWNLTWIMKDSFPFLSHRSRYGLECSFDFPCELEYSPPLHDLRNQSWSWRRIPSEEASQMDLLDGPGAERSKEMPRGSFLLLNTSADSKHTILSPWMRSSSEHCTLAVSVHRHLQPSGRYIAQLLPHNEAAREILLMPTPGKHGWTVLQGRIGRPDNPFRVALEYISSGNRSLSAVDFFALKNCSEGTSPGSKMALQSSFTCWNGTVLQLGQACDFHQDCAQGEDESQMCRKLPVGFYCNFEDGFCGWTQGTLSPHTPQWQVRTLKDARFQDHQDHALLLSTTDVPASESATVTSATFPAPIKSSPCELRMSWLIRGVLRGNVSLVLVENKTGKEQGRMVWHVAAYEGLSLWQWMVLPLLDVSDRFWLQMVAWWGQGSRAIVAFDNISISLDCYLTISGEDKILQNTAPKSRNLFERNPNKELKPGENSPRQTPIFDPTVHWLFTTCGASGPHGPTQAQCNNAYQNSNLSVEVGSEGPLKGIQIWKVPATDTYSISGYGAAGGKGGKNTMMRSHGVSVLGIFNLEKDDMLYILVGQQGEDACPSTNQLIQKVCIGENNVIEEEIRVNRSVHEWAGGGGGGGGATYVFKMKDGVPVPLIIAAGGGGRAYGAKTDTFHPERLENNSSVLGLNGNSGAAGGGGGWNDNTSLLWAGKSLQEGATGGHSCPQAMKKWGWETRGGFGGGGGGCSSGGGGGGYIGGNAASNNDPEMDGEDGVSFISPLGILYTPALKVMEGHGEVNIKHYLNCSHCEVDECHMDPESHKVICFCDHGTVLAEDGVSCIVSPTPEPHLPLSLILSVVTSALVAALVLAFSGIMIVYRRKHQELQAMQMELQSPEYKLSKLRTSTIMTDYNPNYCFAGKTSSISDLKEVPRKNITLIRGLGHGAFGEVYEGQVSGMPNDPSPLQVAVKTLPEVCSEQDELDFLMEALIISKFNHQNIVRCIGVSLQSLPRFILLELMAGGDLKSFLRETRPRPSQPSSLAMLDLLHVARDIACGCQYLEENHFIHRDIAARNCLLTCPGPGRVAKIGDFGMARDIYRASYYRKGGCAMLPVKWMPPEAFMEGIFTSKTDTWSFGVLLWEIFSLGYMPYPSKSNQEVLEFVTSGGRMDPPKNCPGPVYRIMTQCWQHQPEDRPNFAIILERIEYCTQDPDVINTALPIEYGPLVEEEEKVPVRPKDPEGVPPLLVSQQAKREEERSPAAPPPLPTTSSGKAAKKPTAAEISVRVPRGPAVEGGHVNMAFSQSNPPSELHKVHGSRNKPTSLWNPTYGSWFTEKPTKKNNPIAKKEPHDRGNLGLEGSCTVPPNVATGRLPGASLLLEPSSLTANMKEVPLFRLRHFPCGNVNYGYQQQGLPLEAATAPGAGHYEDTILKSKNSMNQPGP
How it was run: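 Wells were coated with phospholipase C-γ at 10 μg/mL in Tris-buffered saline. Adding 30 ng/ml enzyme started the reaction, which ran at 37° C for 15 minutes before Eu-N1 PT66 antibody detection. Percent inhibition versus log10 concentration gave IC50 by variable-slope fit.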

T1 sequence (P08581 956-1390 limits assumed): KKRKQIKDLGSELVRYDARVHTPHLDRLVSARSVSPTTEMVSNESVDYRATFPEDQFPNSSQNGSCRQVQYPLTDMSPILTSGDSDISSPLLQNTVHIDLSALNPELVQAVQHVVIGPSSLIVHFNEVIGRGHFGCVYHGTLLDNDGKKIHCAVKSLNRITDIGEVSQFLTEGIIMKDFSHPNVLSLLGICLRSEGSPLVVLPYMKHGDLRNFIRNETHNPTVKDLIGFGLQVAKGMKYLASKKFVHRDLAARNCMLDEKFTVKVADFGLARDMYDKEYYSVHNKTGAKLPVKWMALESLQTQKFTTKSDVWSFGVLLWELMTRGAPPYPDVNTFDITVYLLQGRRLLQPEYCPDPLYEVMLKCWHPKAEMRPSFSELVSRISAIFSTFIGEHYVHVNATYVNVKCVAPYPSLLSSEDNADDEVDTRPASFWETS

| Structure (SMILES) | IC50 [1] [µM] | IC50 [2] [µM] |
| --- | --- | --- |
| COCCn1ccnc1-c1ccccc1Nc1nc(Nc2ccc3c(c2)C(C)(C)CCC(=O)N3)ncc1Cl [Example 980, 7-(5-Chloro-4-{2-[1-(2-methoxy-ethyl)-1H-imidazol-2-yl]-phenylamino}-pyrimidin-2-ylamino)-5,5-dimethyl-1,3,4,5-tetrahydro-benzo[b]azepin-2-one] | > 10 | 0.1 to 1 |
| COCCN1CCc2ccc(Nc3ncc(Cl)c(Nc4ccccc4-c4nccn4CCOC)n3)cc2CC1 [Example 981, 5-Chloro-N*4*-{2-[1-(2-methoxy-ethyl)-1H-imidazol-2-yl]-phenyl}-N*2*-[3-(2-methoxy-ethyl)-2,3,4,5-tetrahydro-1H-benzo[d]azepin-7-yl]-pyrimidine-2,4-diamine] | 1 to 10 | 0.1 to 1 |
| CCN1C(=O)CCCc2c1ccc(Nc1ncc(Cl)c(Nc3ccccc3-c3nccn3C)n1)c2OC [Example 983, 7-{5-Chloro-4-[2-(1-methyl-1H-imidazol-2-yl)-phenylamino]-pyrimidin-2-ylamino}-1-ethyl-6-methoxy-1,3,4,5-tetrahydro-benzo[b]azepin-2-one] | > 10 | < 0.1 |
| CCN1C(=O)CCCc2c1ccc(Nc1ncc(Cl)c(Nc3ccccc3-c3ncccc3C)n1)c2OC [Example 984, 7-{5-Chloro-4-[2-(3-methyl-pyridin-2-yl)-phenylamino]-pyrimidin-2-ylamino}-1-ethyl-6-methoxy-1,3,4,5-tetrahydro-benzo[b]azepin-2-one] | > 10 | < 0.1 |
| COCCN1CCc2cc(Nc3ncc(Cl)c(Nc4ccccc4-c4nccn4C)n3)c(OC)cc2CC1 [Example 986, 5-Chloro-N*2*-[8-methoxy-3-(2-methoxy-ethyl)-2,3,4,5-tetrahydro-1H-benzo[d]azepin-7-yl]-N*4*-[2-(1-methyl-1H-imidazol-2-yl)-phenyl]-pyrimidine-2,4-diamine] | > 10 | < 0.1 |
| COCCN1CCc2cc(Nc3ncc(Cl)c(Nc4ccccc4-c4ncccc4C)n3)c(OC)cc2CC1 [Example 987, 5-Chloro-N*2*-[8-methoxy-3-(2-methoxy-ethyl)-2,3,4,5-tetrahydro-1H-benzo[d]azepin-7-yl]-N*4*-[2-(3-methyl-pyridin-2-yl)-phenyl]-pyrimidine-2,4-diamine] | > 10 | < 0.1 |
| CC1(C)CCC(=O)Nc2ccc(Nc3ncc(Cl)c(Nc4ccccc4-c4cc(=O)[nH]c(=O)[nH]4)n3)cc21 [Example 988, 6-{2-[5-Chloro-2-(5,5-dimethyl-2-oxo-2,3,4,5-tetrahydro-1H-benzo[b]azepin-7-ylamino)-pyrimidin-4-ylamino]-phenyl}-1H-pyrimidine-2,4-dione] | > 10 | 1 to 10 |
| COc1cccnc1-c1ccccc1Nc1nc(Nc2ccc3c(c2)C(C)(C)CCC(=O)N3)ncc1Cl [Example 989, 7-{5-Chloro-4-[2-(3-methoxy-pyridin-2-yl)-phenylamino]-pyrimidin-2-ylamino}-5,5-dimethyl-1,3,4,5-tetrahydro-benzo[b]azepin-2-one] | 0.1 to 1 | < 0.1 |
| COCCN1CCc2ccc(Nc3ncc(Cl)c(Nc4ccccc4-c4ncccc4OC)n3)cc2CC1 [Example 990, 5-Chloro-N*2*-[3-(2-methoxy-ethyl)-2,3,4,5-tetrahydro-1H-benzo[d]azepin-7-yl]-N*4*-[2-(3-methoxy-pyridin-2-yl)-phenyl]-pyrimidine-2,4-diamine] | 0.1 to 1 | < 0.1 |
| CC1(C)CCC(=O)Nc2ccc(Nc3ncc(Cl)c(Nc4ccccc4-c4ncccc4C(F)(F)F)n3)cc21 [Example 991, 7-{5-Chloro-4-[2-(3-trifluoromethyl-pyridin-2-yl)-phenylamino]-pyrimidin-2-ylamino}-5,5-dimethyl-1,3,4,5-tetrahydro-benzo[b]azepin-2-one] | > 10 | 0.1 to 1 |
| COCCN1CCc2ccc(Nc3ncc(Cl)c(Nc4ccccc4-c4ncccc4C(F)(F)F)n3)cc2CC1 [Example 992, 5-Chloro-N*2*-[3-(2-methoxy-ethyl)-2,3,4,5-tetrahydro-1H-benzo[d]azepin-7-yl]-N*4*-[2-(3-trifluoromethyl-pyridin-2-yl)-phenyl]-pyrimidine-2,4-diamine] | 1 to 10 | < 0.1 |
| CC1(C)CCC(=O)Nc2ccc(Nc3ncc(Cl)c(Nc4cccc(-c5cccnc5)c4)n3)cc21 [Example 993, 7-[5-Chloro-4-(3-pyridin-3-yl-phenylamino)-pyrimidin-2-ylamino]-5,5-dimethyl-1,3,4,5-tetrahydro-benzo[b]azepin-2-one] | 1 to 10 | 0.1 to 1 |
| Cn1ccnc1-c1ccccc1Nc1nc(Nc2ccc3c(c2)CCCC(=O)N3)ncc1Cl [Example 994, 7-{5-Chloro-4-[2-(1-methyl-1H-imidazol-2-yl)-phenylamino]-pyrimidin-2-ylamino}-1,3,4,5-tetrahydro-benzo[b]azepin-2-one] | > 10 | < 0.1 |
| CN1C(=O)CCCc2cc(Nc3ncc(Cl)c(Nc4ccccc4-c4nccn4C)n3)ccc21 [Example 995, 7-{5-Chloro-4-[2-(1-methyl-1H-imidazol-2-yl)-phenylamino]-pyrimidin-2-ylamino}-1-methyl-1,3,4,5-tetrahydro-benzo[b]azepin-2-one] | 0.1 to 1 | < 0.1 |
| CCN1C(=O)CCCc2cc(Nc3ncc(Cl)c(Nc4ccccc4-c4nccn4C)n3)c(OC)cc21 [Example 996, 7-{5-Chloro-4-[2-(1-methyl-1H-imidazol-2-yl)-phenylamino]-pyrimidin-2-ylamino}-1-ethyl-8-methoxy-1,3,4,5-tetrahydro-benzo[b]azepin-2-one] | > 10 | < 0.1 |
| O=C1CCCc2cc(Nc3ncc(Cl)c(Nc4ccccc4-c4cnco4)n3)ccc2N1 [Example 997, 7-[5-Chloro-4-(2-oxazol-5-ylphenylamino)-pyrimidin-2-ylamino]-1,3,4,5-tetrahydro-benzo[b]azepin-2-one] | 0.1 to 1 | 0.1 to 1 |
| COc1ccc2c(c1Nc1ncc(Cl)c(Nc3ccccc3-c3nccn3C)n1)NC(=O)CCC2(C)C [Example 998, 9-{5-Chloro-4-[2-(1-methyl-1H-imidazol-2-yl)-phenylamino]-pyrimidin-2-ylamino}-8-methoxy-5,5-dimethyl-1,3,4,5-tetrahydro-benzo[b]azepin-2-one] | > 10 | > 10 |
| COc1cc2c(cc1Nc1ncc(Cl)c(Nc3ccccc3-c3nccn3C)n1)CCN(CC(=O)N(C)C)CC2 [Example 999, 2-(7-{5-Chloro-4-[2-(1-methyl-1H-imidazol-2-yl)-phenylamino]-pyrimidin-2-ylamino}-8-methoxy-1,2,4,5-tetrahydro-benzo[d]azepin-3-yl)-N,N-dimethyl-acetamide] | > 10 | < 0.1 |
| COc1cc2c(cc1Nc1ncc(Cl)c(Nc3ccccc3-c3ncccc3C)n1)CCN(CC(=O)N(C)C)CC2 [Example 1000, 2-(7-{5-Chloro-4-[2-(3-methyl-pyridin-2-yl)-phenylamino]-pyrimidin-2-ylamino}-8-methoxy-1,2,4,5-tetrahydro-benzo[d]azepin-3-yl)-N,N-dimethyl-acetamide] | > 10 | < 0.1 |
| Cc1ccnc(-c2ccccc2Nc2nc(Nc3ccc4c(c3)C(C)(C)CCC(=O)N4)ncc2Cl)c1 [Example 1001, 7-{5-Chloro-4-[2-(4-methyl-pyridin-2-yl)-phenylamino]-pyrimidin-2-ylamino}-5,5-dimethyl-1,3,4,5-tetrahydro-benzo[b]azepin-2-one] | > 10 | 0.1 to 1 |
| Cc1ccnc(-c2ccccc2Nc2nc(Nc3ccc4c(c3)CCCC(=O)N4C)ncc2Cl)c1 [Example 1002, 7-{5-Chloro-4-[2-(4-methyl-pyridin-2-yl)-phenylamino]-pyrimidin-2-ylamino}-1-methyl-1,3,4,5-tetrahydro-benzo[b]azepin-2-one] | 0.1 to 1 | 0.1 to 1 |
| Cc1ccc(-c2ccccc2Nc2nc(Nc3ccc4c(c3)C(C)(C)CCC(=O)N4)ncc2Cl)nc1 [Example 1003, 7-{5-Chloro-4-[2-(5-methyl-pyridin-2-yl)-phenylamino]-pyrimidin-2-ylamino}-5,5-dimethyl-1,3,4,5-tetrahydro-benzo[b]azepin-2-one] | > 10 | 1 to 10 |
| Cc1ccc(-c2ccccc2Nc2nc(Nc3ccc4c(c3)CCCC(=O)N4C)ncc2Cl)nc1 [Example 1004, 7-{5-Chloro-4-[2-(5-methyl-pyridin-2-yl)-phenylamino]-pyrimidin-2-ylamino}-1-methyl-1,3,4,5-tetrahydro-benzo[b]azepin-2-one] | 1 to 10 | 1 to 10 |
| Cn1cnc2c(Nc3nc(Nc4ccc5c(c4)C(C)(C)CCC(=O)N5)ncc3Cl)cccc21 [Example 1005, 7-[5-Chloro-4-(1-methyl-1H-benzoimidazol-4-ylamino)-pyrimidin-2-ylamino]-5,5-dimethyl-1,3,4,5-tetrahydro-benzo[b]azepin-2-one] | 0.1 to 1 | < 0.1 |
| COCCN1CCc2ccc(Nc3ncc(Cl)c(Nc4cccc5c4ncn5C)n3)cc2CC1 [Example 1006, 5-Chloro-N*2*-[3-(2-methoxy-ethyl)-2,3,4,5-tetrahydro-1H-benzo[d]azepin-7-yl]-N*4*-(1-methyl-1H-benzoimidazol-4-yl)-pyrimidine-2,4-diamine] | 1 to 10 | 0.1 to 1 |
| CN1C(=O)CCCc2cc(Nc3ncc(Cl)c(Nc4cccc5c4ncn5C)n3)ccc21 [Example 1007, 7-[5-Chloro-4-(1-methyl-1H-benzoimidazol-4-ylamino)-pyrimidin-2-ylamino]-1-methyl-1,3,4,5-tetrahydro-benzo[b]azepin-2-one] | 0.1 to 1 | 0.1 to 1 |
